Experimental data as given in BigSolDB 2.1.

CCCCCCCCCCCCCCCc1cccc(O)c1
Conditions | solubility (mole fraction)
in acetone, 289.08 K | 0.253
in acetone, 291.32 K | 0.272
in acetone, 293.55 K | 0.309
in acetone, 295.54 K | 0.33
in acetone, 297.54 K | 0.351
in acetone, 299.33 K | 0.373
in ethanol, 291.47 K | 0.158
in ethanol, 293.83 K | 0.181
in ethanol, 295.56 K | 0.199
in ethanol, 297.55 K | 0.228
in ethanol, 299.15 K | 0.252
in ethanol, 301.28 K | 0.278
in ethyl acetate, 290.83 K | 0.236
in ethyl acetate, 295.86 K | 0.299
in ethyl acetate, 297.3 K | 0.323
in ethyl acetate, 300.12 K | 0.352
in ethyl acetate, 302.14 K | 0.38
in n-butanol, 293.55 K | 0.239
in n-butanol, 295.36 K | 0.263
in n-butanol, 297.33 K | 0.282
in n-butanol, 299.16 K | 0.302
in n-butanol, 300.86 K | 0.321
in n-butanol, 302.94 K | 0.349
in tetrachloromethane, 288.46 K | 0.0912
in tetrachloromethane, 290.45 K | 0.101
in tetrachloromethane, 292.51 K | 0.124
in tetrachloromethane, 294.42 K | 0.15
in tetrachloromethane, 296.55 K | 0.18
in tetrachloromethane, 298.36 K | 0.21
in tetrachloromethane, 300.24 K | 0.242
in toluene, 295.25 K | 0.122
in toluene, 297.45 K | 0.14
in toluene, 299.2 K | 0.16
in toluene, 301.23 K | 0.186
in toluene, 303.66 K | 0.228
in toluene, 305.47 K | 0.262
